Values joined by “and” are separate entries in the source; they are usually repeats but may differ in a detail not shown here. Identical values can stand only once. Like-named read-outs stand apart in the source and are kept apart here.
How the values were obtained:
[1] = target: Ustilago maydis acetyl CoA carboxylase (ACCase) (Mycosarcoma maydis (Ustilago maydis), UniProt A0A0D1DYD5); test: ACCase enzymatic assay (coupled PK/LDH, NADH OD340); assay type: biochemical
Procedure: Ustilago maydis acetyl CoA carboxylase (ACCase) was cloned, expressed, and purified as described (Weatherly et al, Biochem. J., 2004) and the test compounds were tested in a 96-well plate format. Primary in vitro screening consisted of obtaining dose response data at 100, 33, 10, and 1 μM inhibitor. Actives in the primary screen were re-tested to establish IC50 values.
Direct detection of the conversion of acetyl CoA to malonyl CoA by ACCase was not feasible, but during this process ATP is converted to ADP which allowed for detection through a standard reaction coupling with ADP recycling to the oxidation of NADH. Thus, ACCase activity was measured via kinetic OD340 measurements of the conversion of NADH to NAD in a coupled reaction involving the conversion of phosphoenolpyruvate (PEP) to lactate.
The complete 200 ul reaction mixture contained 52.5 mM HEPES (pH8), 2.625 mM MgCl2, 1 mM ATP, 0.525 mM DTT, 11 mM NaHCO3, 1% DMSO with or without inhibitor, 1× pyruvate kinase/lactate dehydrogenase (PK/LDH), 0.3 mM NADH, 0.5 mM PEP, and 5 μg ACCase. The reactions were incubated at 30° C. for 10 minutes and then initiated by the addition of 0.33 mM acetyl CoA. The initiated reactions were read immediately via plate reader at OD340 and kinetic readings were acquired every 20 s for 15 minutes while keeping the temperature at 30° C.
A slope of the kinetic curve was determined by using the 2 to 7 minute data which was then calculated as percent inhibition relative to the no inhibitor control.
The primary screens were conducted in duplicate and the IC50's conducted in triplicate. Averages were reported along with standard deviation calculation to generate error bars.
Each plate contained its own controls and consisted of a DMSO only control, 5-fold titration series of soraphen from 2 μM to 3.2 nM, and an ADP coupled reaction control.

[2] = system: Collectotrichum graminicola; test: Fungal growth inhibition assay, Collectotrichum graminicola; assay type: cell-based; conditions: Colletotrichum graminicola, 48 hours, read-out: C. graminicola % growth inhibition at 48 hours
Procedure: (§1) Spores were isolated from previously sub-cultured plates of Botrytis cinerea, Phytophthora capsici, Fusarium moniliforme, Fusarium viguliforme, Collectotrichum graminicola, and Diplodia maydis. All spores were filtered and collected in a sterile glass bowl to isolate the spores from the mycelia. The isolation and sub-culture plate condition for each pathogen is described below.
Spore isolation for C. graminicola: A 1-2 week old oatmeal agar (pre-mix) plate was removed from 26° C. incubator with a light/dark 12 hour cycle and the mycelia were treated with 10-15 ml of filter sterilized distilled water. The mycelia were scraped to re-suspend the spores. The spores were then collected in a sterile filter bowl containing a piece of sterile cheesecloth and poured into a conical tube.
(§2) After spore isolation, pathogen spores were counted on a hemocytometer to calculate the spores/ml. In 17% V8 liquid media containing 3 g/L CaCO3, isolated spores were diluted to individual concentrations based on the growth curves at 48 hours of each pathogen. The spore concentrations for each pathogen were as follows: B. cinerea—10,000 sp/ml; P. capsici—300 sp/ml; F. monliforme—500 sp/ml; F. virguliforme—500 sp/ml; C. graminicola—3,000 sp/ml; and D. maydis—3,000 sp/ml.
(§3) Chemistry stocks were dissolved in DMSO at 2.5 mg/ml. Chemistry was diluted in a 96-well stock plate in five-fold dilutions to obtain a final concentration of 50, 10, and 2 ppm in vitro. The final concentration of the positive control after the five-fold dilutions was as follows: soraphen—0.5, 0.1, and 0.02 ppm. Negative controls on each plate included 2% DMSO, water containing spores and media, and a blank for background subtraction.
(§4) In a 96-well plate the spore solution, chemistries, and controls were combined to make the final solution concentrations mentioned above. Upon addition of the chemistry, an OD600 reading was done to assess chemical precipitation. The 96-well plates were incubated in plastic tubs containing wet paper towels under the following conditions, 25° C. in the dark for P. capsici and B. cinerea or 26° C. with light/dark cycle for C. graminicola, D. maydis, F. virguliforme, F. monliforme. Plate readings were repeated at 24 and 48 hrs. Visual ratings were performed at 24 and 48 hrs to check for precipitation and confirm efficacy. Visual and OD600 ratings of the chemistry at 48 hours were compared to the 2% DMSO control to determine the percent of pathogen growth inhibition.

Botrytis cinerea = test: Fungal growth inhibition assay, Botrytis cinerea; assay type: cell-based; conditions: 48 hours, read-out: B. cinerea % growth inhibition at 48 hours
Text: as §1
Spore isolation for B. cinerea: A 2-3 week old V8 (17%)+CaCO3 (3 g/L)+20 g agar plate was removed from room temperature and the mycelia were treated with 5-10 ml of filter sterilized Triton X 100 (.05%). The mycelia were scraped to re-suspend the spores. The spores were then collected in a sterile filter bowl containing a fluted piece of filter paper and poured into a conical tube.
as §2, §3, §4

Fusarium virguliforme = test: Fungal growth inhibition assay, Fusarium virguliforme; assay type: cell-based; conditions: 48 hours, read-out: F. virguliforme % growth inhibition at 48 hours
Procedure: as §1
Spore isolation for F. virguliforme: A 2-3 week old PDA (pre-mix) plate containing cefotaxime (100 mg/L) and kanamycin (50 mg/L) was removed from 26° C. incubator with a light/dark 12 hour cycle and the mycelia were treated with 5-10 ml of filter sterilized distilled water. The mycelia were scraped to re-suspend the spores. The spores were then collected in a sterile filter bowl containing a fluted piece of filter paper and poured into a conical tube.
as §2, §3, §4

Saccharomyces cerevisiae = test: Yeast growth inhibition assay; assay type: cell-based
Procedure: Yeast cells (Ade2 strain) were grown in liquid YPD (1% yeast extract, 2% peptone, 2% dextrose) for 16 hours at 30° C. from previously sub-cultured plates of Saccharomyces cerevisiae. The OD600 of the overnight culture was checked via spectrophotometer and diluted to a concentration of 2×10^4 cells/ml.
Chemistry stocks were dissolved in DMSO to a concentration of 10 mM. Chemistry stocks were further diluted in a 96-well stock plate to obtain final concentrations of 100, 33, 10 and 1 μM in 1% DMSO. The final concentrations of the soraphen positive controls were 400, 40, and 3.2 nM. The negative controls on each plate included a background subtraction control containing yeast and 1% DMSO (without chemistry) and a second contamination control containing YPD (with no yeast) and 1% DMSO (without chemistry).
98 μl liquid YPD was added to 2 μl diluted stock of DMSO per well and mixed thoroughly. After mixing, 100 μl of the diluted yeast solution was added to bring the final yeast concentration to 1×10^4 cells/ml or 2000 cells per well. An initial spectrophotometric reading at OD600 was conducted on the entire plate and served as the 0 hour time point used to subtract any background. […] […] […] All experiments were conducted in triplicate. Averages were reported along with standard deviation calculation to generate error bars. Each plate contained its own controls and consisted of inoculated+DMSO, non-inoculated+DMSO, and a titration series of soraphen at 400, 40, and 3.2 nM.

Diplodia maydis = test: Fungal growth inhibition assay, Diplodia maydis; assay type: cell-based; conditions: 48 hours, read-out: D. maydis % growth inhibition at 48 hours
Procedure: as §1
Spore isolation for D. maydis: A 3-4 week old PDA (pre-mix) plate was removed from 26° C. incubator with a light/dark 12 hour cycle and the mycelia were treated with 6-7 ml of sterile distilled water, scraped into a sterile petri dish, and smashed to open the pycnidia. The spores were then collected in a sterile filter bowl containing a fluted piece of filter paper and poured into a conical tube.
as §2, §3, §4

Phytophthora capsici = test: Fungal growth inhibition assay, Phytophthora capsici; assay type: cell-based; conditions: 48 hours, read-out: P. capsici % growth inhibition at 48 hours
Text: as §1
Spore isolation for P. capsici: Three to five days prior to the assay a 2-3 week old V8 (17%)+CaCO3 (3 g/L)+20 g agar plate was removed from a dark 25° C. incubator and cut up into small chunks. One plate was separated into two deep well plates and rinsed with sterile distilled water three times. The cut up pieces were incubated under light in a sterile filter hood with 25 ml of sterile distilled water. On the day of the assay the water was removed and 5-7 ml of fresh sterile distilled water was added. One plate was incubated at 4° C. for 45-60 minutes and then placed at room temperature for about 45-60 minutes. The spores were collected in a sterile filter bowl containing a fluted piece of filter paper. The spores were vortexed in a conical tube for 30-60 seconds to remove the flagella of the zoospores after isolation.
as §2, §3, §4

[3] = Table 1A, values marked a are a result of two or more experiments, read-out: ACCase Inhibitory Activity IC50

Sequence of Ustilago maydis acetyl CoA carboxylase (ACCase) (A0A0D1DYD5 1-2185): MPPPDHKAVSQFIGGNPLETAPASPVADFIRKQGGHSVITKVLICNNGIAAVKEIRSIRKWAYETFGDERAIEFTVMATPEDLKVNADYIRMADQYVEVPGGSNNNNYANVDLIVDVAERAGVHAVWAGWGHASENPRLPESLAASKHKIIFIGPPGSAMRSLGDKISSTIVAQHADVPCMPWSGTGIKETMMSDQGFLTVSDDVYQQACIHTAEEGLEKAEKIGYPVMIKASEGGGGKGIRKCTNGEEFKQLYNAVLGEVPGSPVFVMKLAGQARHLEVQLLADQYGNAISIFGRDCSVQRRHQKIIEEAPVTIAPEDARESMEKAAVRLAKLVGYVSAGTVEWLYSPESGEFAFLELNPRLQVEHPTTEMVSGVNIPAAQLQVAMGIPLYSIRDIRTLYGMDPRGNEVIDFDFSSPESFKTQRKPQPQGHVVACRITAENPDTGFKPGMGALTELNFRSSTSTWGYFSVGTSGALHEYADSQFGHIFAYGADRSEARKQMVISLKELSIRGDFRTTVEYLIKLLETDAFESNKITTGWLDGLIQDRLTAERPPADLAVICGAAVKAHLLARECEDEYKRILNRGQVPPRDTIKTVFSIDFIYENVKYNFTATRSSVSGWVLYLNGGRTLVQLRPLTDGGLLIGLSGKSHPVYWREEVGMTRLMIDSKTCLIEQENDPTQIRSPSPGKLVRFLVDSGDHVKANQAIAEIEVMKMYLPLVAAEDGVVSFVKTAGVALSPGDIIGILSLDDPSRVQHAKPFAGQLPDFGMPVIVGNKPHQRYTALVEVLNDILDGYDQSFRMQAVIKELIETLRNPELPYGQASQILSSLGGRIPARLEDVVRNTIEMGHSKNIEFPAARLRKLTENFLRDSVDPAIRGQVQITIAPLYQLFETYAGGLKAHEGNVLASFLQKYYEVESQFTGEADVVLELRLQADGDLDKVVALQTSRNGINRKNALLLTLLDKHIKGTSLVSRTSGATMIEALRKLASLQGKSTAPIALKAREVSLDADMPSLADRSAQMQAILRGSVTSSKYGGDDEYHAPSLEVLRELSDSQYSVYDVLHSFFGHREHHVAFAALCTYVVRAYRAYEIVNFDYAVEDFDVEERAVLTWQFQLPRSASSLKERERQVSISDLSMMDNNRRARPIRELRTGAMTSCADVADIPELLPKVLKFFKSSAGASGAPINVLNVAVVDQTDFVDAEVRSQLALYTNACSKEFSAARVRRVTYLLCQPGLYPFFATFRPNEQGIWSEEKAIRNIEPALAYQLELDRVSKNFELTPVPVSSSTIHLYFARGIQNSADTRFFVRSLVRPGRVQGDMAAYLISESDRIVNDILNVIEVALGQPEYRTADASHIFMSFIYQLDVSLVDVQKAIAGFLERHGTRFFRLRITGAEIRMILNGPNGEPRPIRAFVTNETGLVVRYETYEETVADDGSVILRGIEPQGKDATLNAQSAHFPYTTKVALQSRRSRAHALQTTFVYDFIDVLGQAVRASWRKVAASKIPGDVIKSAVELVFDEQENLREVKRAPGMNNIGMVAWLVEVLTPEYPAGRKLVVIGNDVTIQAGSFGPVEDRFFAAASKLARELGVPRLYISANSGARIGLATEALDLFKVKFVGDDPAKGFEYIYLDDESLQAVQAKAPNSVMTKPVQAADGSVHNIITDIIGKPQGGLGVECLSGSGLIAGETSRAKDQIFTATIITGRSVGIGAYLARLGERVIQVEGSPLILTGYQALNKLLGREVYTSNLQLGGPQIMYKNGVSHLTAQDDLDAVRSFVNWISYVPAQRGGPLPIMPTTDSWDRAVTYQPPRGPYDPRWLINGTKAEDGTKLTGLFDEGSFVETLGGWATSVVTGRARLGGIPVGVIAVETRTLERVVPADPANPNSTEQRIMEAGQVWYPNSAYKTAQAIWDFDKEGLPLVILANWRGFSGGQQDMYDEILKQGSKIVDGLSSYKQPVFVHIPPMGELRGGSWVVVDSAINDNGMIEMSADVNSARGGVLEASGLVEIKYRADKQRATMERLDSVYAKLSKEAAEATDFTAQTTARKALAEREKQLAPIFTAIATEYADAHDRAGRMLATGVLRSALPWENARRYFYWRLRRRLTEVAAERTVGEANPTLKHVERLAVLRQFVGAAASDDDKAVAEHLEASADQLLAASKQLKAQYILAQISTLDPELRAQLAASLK

Compound | inhibition at 2 ppm [2] | inhibition at 10 ppm [2] | inhibition at 50 ppm [2] | inhibition at 2 ppm (Botrytis cinerea) | inhibition at 10 ppm (Botrytis cinerea) | IC50 [1, 3] | inhibition at 2 ppm (Fusarium virguliforme) | inhibition at 10 ppm (Fusarium virguliforme) | inhibition at 50 ppm (Botrytis cinerea) | inhibition at 2 ppm (Diplodia maydis) | inhibition at 10 ppm (Diplodia maydis) | inhibition at 50 ppm (Diplodia maydis) | further results
COc1ccc(-c2cc(-c3cccs3)nc(SC(C(=O)O)c3ccccc3)c2C#N)cc1 (racemic) [Formula Ia-xiv, 2-((3-cyano-4-(4-methoxyphenyl)-6-(thiophen-2-yl)pyridin-2-yl)thio)-2-phenylacetic acid] | 6% | 32% | 79% | 14% | 8% |  |  |  |  |  |  |  | IC50 ([1]; Table 1B, racemate vs single enantiomers, read-out: ACCase Inhibitory Activity of Racemic Mixtures and Single Enantiomers IC50): 0.092 µM and 0.14 µM
CCc1nc(SC(C(=O)O)c2ccccc2)c(C#N)c2c1CCCC2 (stereo not drawn) [Formula Ia-xv, 2-((4-cyano-1-ethyl-5,6,7,8-tetrahydroisoquinolin-3-yl)thio)-2-phenylacetic acid] |  |  |  |  |  | 10.2 µM | 10% | 48% |  |  |  |  | 
N#Cc1c(C(F)(F)F)cc(-c2ccc(Br)cc2)nc1SC(C(=O)O)c1ccccc1 (stereo not drawn) [Formula Ia-x, 2-((6-(4-bromophenyl)-3-cyano-4-(trifluoromethyl)pyridin-2-yl)thio)-2-phenylacetic acid] |  |  |  | 0% | 12% | 1.95 µM |  |  | 25% |  |  |  | inhibition at 3.7 µM (Saccharomyces cerevisiae; read-out: S. cerevisiae % growth inhibition at 48 hours, 3.7 μM): 12%; inhibition at 11.1 µM (Saccharomyces cerevisiae; read-out: S. cerevisiae % growth inhibition at 48 hours, 11.1 μM): 13%; inhibition at 33.3 µM (Saccharomyces cerevisiae; read-out: S. cerevisiae % growth inhibition at 48 hours, 33.3 μM): 46%; inhibition at 100 µM (Saccharomyces cerevisiae; read-out: S. cerevisiae % growth inhibition at 48 hours, 100 μM): 99%
N#Cc1c(-c2cccs2)cc(-c2cccs2)nc1SC(C(=O)O)c1ccccc1 (racemic) [Formula Ia-iii, 2-((3-cyano-4,6-di(thiophen-2-yl)pyridin-2-yl)thio)-2-phenylacetic acid] | 27% | 98% | 91% |  |  |  | 2% | 84% |  | 0% | 87% | 82% | inhibition at 50 ppm (Fusarium virguliforme; 50 ppm): 90%
N#Cc1c(-c2ccccc2)cc(-c2ccccc2)nc1SC(C(=O)O)c1ccccc1 (stereo not drawn) [Formula Ia-xii, 2-((3-cyano-4,6-diphenylpyridin-2-yl)thio)-2-phenylacetic acid] | 6% | 35% | 80% | 0% | 6% | 0.266 µM |  |  | 19% | 42% | 59% | 86% | inhibition at 2 ppm (Phytophthora capsici; 2 ppm): 16%; inhibition at 10 ppm (Phytophthora capsici; 10 ppm): 36%; inhibition at 50 ppm (Phytophthora capsici; 50 ppm): 22%
